Data from article PMC8667942 (Journal of Enzyme Inhibition and Medicinal Chemistry, 2021).
“And” between values parts separate entries of the source, which are not always exact repeats. Equal values may be shown once. “Also recorded” adds a separate entry of the source.

How the values were obtained:
human IP6K2 = biological target: T1, human IP6K2 (Homo sapiens, UniProt Q9UHH9); test: IP6K2 inhibition assay (ADP Glo kinase assay); assay type: biochemical; conditions: purified human IP6K2, 10 μM IP6, 10 μM ATP, 8-dose, triplicate, mean ± SEM
T1 construct: made in house; host or cells: Sf9 insect cells (baculovirus)
T1 sequence (Q9UHH9 1-426): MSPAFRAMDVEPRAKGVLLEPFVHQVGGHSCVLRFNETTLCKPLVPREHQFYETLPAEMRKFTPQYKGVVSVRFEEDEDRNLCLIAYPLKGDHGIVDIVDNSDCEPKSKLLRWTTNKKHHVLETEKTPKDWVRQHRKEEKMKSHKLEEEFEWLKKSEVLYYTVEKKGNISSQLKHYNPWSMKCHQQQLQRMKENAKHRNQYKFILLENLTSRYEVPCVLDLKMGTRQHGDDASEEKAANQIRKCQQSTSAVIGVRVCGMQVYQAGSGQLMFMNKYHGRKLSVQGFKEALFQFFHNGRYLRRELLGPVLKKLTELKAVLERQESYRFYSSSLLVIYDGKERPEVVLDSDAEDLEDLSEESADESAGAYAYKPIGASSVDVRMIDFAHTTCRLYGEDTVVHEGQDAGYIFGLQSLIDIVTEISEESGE
Description: Full-length human IP6K2 cDNA was subcloned into pFASTBAC1 plasmid (Gibco) with an N-terminal FLAG epitope sequence, and baculovirus was generated according to the manufacturer’s instructions. Sf9 insect cells were infected with baculovirus and incubated for 72 h. The cells were resuspended in lysis buffer [20 mM Tris–HCl (pH 7.9), 500 mM NaCl, 4 mM MgCl2, 0.4 mM EDTA, 2 mM DTT, 20% glycerol, 1 mM PMSF, and protease inhibitor cocktail (Roche)] and then disrupted with a Dounce homogeniser (pestle A, 3 series of 10 strokes with 10 min interval).
IP6K2 activity was measured using ADP Glo assay kit (Promega). All kinase assays were performed in low volume 384-well white plates (784075, Greiner-bioone) with a final volume of 5 μL. The reaction buffer contained 2 ng Flag-hIP6K2, 10 μM IP6, and 10 μM ATP in kinase buffer (50 mM Tris, 10 mM MgCl2, 2.5 mM DTT, 0.02% Triton-X-100, pH 6.8)[26]. For dose-dependent inhibition assay, 8 serial 2-fold dilutions of test compounds were prepared in DMSO. The final DMSO concentration was 5% in each reaction. The test compounds (5X, 25% DMSO in 1X kinase buffer) were dispensed to each well, and 2.5 X IP6K2 in kinase buffer were added. After 15 min incubation at room temperature, 2.5 X concentrations of IP6 and ATP were added to the plate. The reaction plate was incubated in a 37 °C incubator for 30 min. Next, the reactions were quenched with 5 μL of ADP Glo reagent for 40 min to deplete the remaining ATP. To convert the remaining ADP to ATP, 10 μl of detection reagent were added and incubated for 30–60 min. The luminescence of the final reactants was measured using the Mithras LB940 plate reader from Berthold. Samples were run in triplicate and the activity (%) was calculated using the following equations; Activity (%) = 100 × (μexperimental–μnegative)/(μpositive–μnegative). Negative control was DSMO-treated reaction. IC50 value was estimated using a logistic regression model with R package.

purified CYP3A4 = purified CYP3A4 (Homo sapiens, UniProt P08684); test: Spectral binding titration of purified CYP3A4; conditions: 1 µM purified CYP3A4, pH 7.4, no binding = no spectral change up to 200 μM; for Kd: read-out: CYP3A4 Kd (spectral dissociation constant)
Description: Purified CYP3A4 enzymes were diluted to 1 µM in 100 mM potassium phosphate buffer (pH 7.4) and then divided into two glass cuvettes. […] The binding titration was analysed using GraphPad Prism software (GraphPad, Inc., La Jolla, CA, USA).

[1] = biological target: T2, recombinant microsomal CYP3A4 (Homo sapiens, UniProt P08684); test: In vitro CYP450 activity assay (Vivid CYP450 Blue screening kit, BOMCC); assay type: in vitro ADME; conditions: recombinant CYP3A4, 100 nM treatment for 10 min, mean ± SEM
T2 construct: purchased Invitrogen P2858; host or cells: BACULOSOMES (microsomes of baculovirus-infected insect cells: own knowledge of the product)
Description: The activity of CYP3A4 was measured using the Vivid® CYP450 Blue screening kit (Cat No. P2858 for 3A4, Invitrogen). […] The system consisted of 100 μL of the final volume. The CYP450 substrate Vivid BOMCC and positive control inhibitor (ketoconazole), were dissolved in acetonitrile. […] The mixture containing test drugs, Vivid® CYP450 BACULOSOMES reagent, and Vivid® Regeneration system (Total 90 μL) was dispensed into a 96-well black plate and incubated at room temperature for 20 min. After adding 10 μL of Vivid® CYP450 reaction buffer (100 μM NADP, 10 μM Vivid® BOMCC), the mixture was incubated for 10 min at room temperature. […] The CYP450 3A4 inhibitory efficiency (%) of the test drug was calculated by comparing the reaction rates of the test compounds with the reaction rate of the positive control group (Ketoconazole) and the negative control group (0.1% Acetonitrile, 0.1% DMSO) using the measured fluorescence values.

[2] = test system: IP7 synthesis in HCT116 cells; test: Quantification of intracellular inositol phosphates by HPLC in radiolabeled HCT116; assay type: cell-based, human; conditions: HCT116, 50 μM, 4 h
Description: For HPLC analysis, 2 × 10^5 cells/60 mm dish of HCT116 were treated with 75 μCi [^3H] myo-inositol (NET1177001MC, PerkinElmer). After 3 days, soluble inositol polyphosphates from HCT116 (human colorectal cancer cell line) were extracted and analysed as previously described. Intracellular inositol phosphates were extracted with acid extraction buffer (1 M HClO4, 3 mM EDTA, and 0.1 mg/ml1 IP6), and neutralised with neutralisation buffer (1 M K2CO3 and 3 mM EDTA). The lysates were centrifuged for 10 min, and the soluble fraction was resolved by HPLC as described earlier. The lipid pellet was lysed with 0.1% Triton X-100 in NaOH overnight. Each fraction was mixed with Ultima-Flo AP liquid scintillation cocktail (6013599, PerkinElmer), and radioactivity was counted in a scintillation counter. Quantity of inositol phosphates was presented as total counts/min (CPM) normalised by total lipid contents.

[3] = test system: Akt phosphorylation at Thr308 in HCT116 cells; test: AKT activation in HCT116 cells (Western blot); assay type: cell-based, human; conditions: HCT116, 50 μM, 4 h, pAkt/Akt by Western blot
Description: Total proteins were quantified by bicinchoninic acid assay (23225, Thermo Fisher Scientific). Total 20 μg proteins were resolved in 8% SDS–PAGE, and then Akt phosphorylation was probed with primary antibodies against, phospho–Akt (Thr308) (4056) and Akt (9272) (Cell Signalling) and HRP-conjugated secondary antibody. The relative band intensities of Akt phosphorylation to total Akt were quantified with Image J software.

Chain of purified CYP3A4 (P08684 whole entry): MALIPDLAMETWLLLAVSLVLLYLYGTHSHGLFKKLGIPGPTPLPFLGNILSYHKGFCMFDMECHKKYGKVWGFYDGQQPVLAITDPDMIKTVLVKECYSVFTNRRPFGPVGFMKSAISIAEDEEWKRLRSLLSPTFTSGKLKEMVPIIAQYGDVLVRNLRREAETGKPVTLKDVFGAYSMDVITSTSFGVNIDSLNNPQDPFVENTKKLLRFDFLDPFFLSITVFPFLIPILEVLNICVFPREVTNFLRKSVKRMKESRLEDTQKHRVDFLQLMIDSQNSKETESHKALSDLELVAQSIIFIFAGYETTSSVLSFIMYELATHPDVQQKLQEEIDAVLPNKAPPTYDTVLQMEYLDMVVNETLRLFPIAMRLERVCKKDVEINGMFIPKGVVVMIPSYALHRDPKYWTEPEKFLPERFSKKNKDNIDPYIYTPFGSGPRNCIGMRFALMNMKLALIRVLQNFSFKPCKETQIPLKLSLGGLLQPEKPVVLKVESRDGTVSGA
T2 sequence (P08684 whole entry): as above

IC50 (human IP6K2)	Kd (purified CYP3A4) [µM]	Relative 3A4 inhibition (% of TNP) [1]	melting point [°C]	Structure (SMILES)	IP4, IP5, and IP6 levels [2]	cellular IP7 synthesis (effect in words) [2]	decrease of cellular IP7 synthesis compared to DMSO [2] [%]	increase in Akt phosphorylation at Thr308 compared to vehicle treatment [3]	CYP3A4 Kd (spectral dissociation constant) (purified CYP3A4)
5.3 ± 0.3 µM	1.4 ± 0.5	–	–	FC(F)(F)c1cccc(CNc2nc(NCc3cccnc3)c3nc[nH]c3n2)c1 [Compound 10, N^6-(pyridin-3-ylmethyl)-N^2-(3-(trifluoromethyl)benzyl)-9H-purine-2,6-diamine]	–	–	–	–	–
13.2 ± 0.4 µM	11.1 ± 1	120 ± 1 % of TNP	287	Fc1ccc(CNc2nc(NCc3nc4ccccc4[nH]3)c3nc[nH]c3n2)cc1 [Compound 18, N^6-((1H-benzo[d]imidazol-2-yl)methyl)-N^2-(4-fluorobenzyl)-9H-purine-2,6-diamine]	–	–	–	–	–
19.9 ± 0.1 µM	40.5 ± 8	–	–	Clc1ccc(CNc2nc(NCc3ncc[nH]3)c3nc[nH]c3n2)cc1 [Compound 16, N^6-((1H-imidazol-2-yl)methyl)-N^2-(4-chlorobenzyl)-9H-purine-2,6-diamine]	–	–	–	–	–
7.3 ± 0.5 µM	28.8 ± 2.7	–	–	CS(=O)(=O)c1ccc(CNc2nc(NCc3ccc(F)cc3)nc3[nH]cnc23)cc1 [Compound 7, N^2-(4-fluorobenzyl)-N^6-(4-(methylsulfonyl)benzyl)-9H-purine-2,6-diamine]	–	–	–	–	–
3.3 ± 0.8 µM	2 ± 0.5	126 ± 1 % of TNP	251	O=[N+]([O-])c1ccc(CNc2nc(NCc3cccnc3)c3nc[nH]c3n2)cc1 [Compound 13, N^2-(4-nitrobenzyl)-N^6-(pyridin-3-ylmethyl)-9H-purine-2,6-diamine]	–	–	–	–	–
16 µM and 16.8 µM	–	–	–	CS(=O)(=O)c1ccc(CNc2nc(NCc3ccc([N+](=O)[O-])cc3)nc3[nH]cnc23)cc1 [Compound 9, N^6-(4-(methylsulfonyl)benzyl)-N^2-(4-nitrobenzyl)-9H-purine-2,6-diamine]	without notable changes	reduced cellular IP7 synthesis	~44	more than 1.5 fold	did not show any binding spectral change; also recorded: without binding to CYP3A4; also recorded: No binding^d
–	14.4 ± 3.3	–	–	CS(=O)(=O)c1ccc(CNc2nc(NCc3ccc(Cl)cc3)nc3[nH]cnc23)cc1 [Compound 8, N^2-(4-chlorobenzyl)-N^6-(4-(methylsulfonyl)benzyl)-9H-purine-2,6-diamine]	–	–	–	–	–
12.6 ± 0.4 µM	7.9 ± 0.8	116 ± 3 % of TNP	289	FC(F)(F)c1cccc(CNc2nc(NCc3nc4ccccc4[nH]3)c3nc[nH]c3n2)c1 [Compound 17, N^6-((1H-benzo[d]imidazol-2-yl)methyl)-N^2-(3-(trifluoromethyl)benzyl)-9H-purine-2,6-diamine]	–	–	–	–	–
4.6 ± 0.2 µM	24.8 ± 4.3	–	–	CS(=O)(=O)c1ccc(CNc2nc(NCc3cccc(C(F)(F)F)c3)nc3[nH]cnc23)cc1 [Compound 6, N^6-(4-(methylsulfonyl)benzyl)-N^2-(3-(trifluoromethyl)benzyl)-9H-purine-2,6-diamine]	–	–	–	–	–
19.3 ± 0.27 µM	16.9 ± 3.7	120 ± 0.66 % of TNP	160	Clc1ccc(CNc2nc(NCc3nc4ccccc4[nH]3)c3nc[nH]c3n2)cc1 [Compound 19, N^6-((1H-benzo[d]imidazol-2-yl)methyl)-N^2-(4-chlorobenzyl)-9H-purine-2,6-diamine]	–	–	–	–	–
24.7 ± 0.2 µM	–	–	–	Fc1ccc(CNc2nc(NCc3ncc[nH]3)c3nc[nH]c3n2)cc1 [Compound 15, N^6-((1H-imidazol-2-yl)methyl)-N^2-(4-fluorobenzyl)-9H-purine-2,6-diamine]	without notable changes	reduced cellular IP7 synthesis	–	more than 1.5 fold	did not display any binding spectral change; also recorded: without binding to CYP3A4; also recorded: No binding^d
21.8 ± 0.3 µM	–	65.7 ± 1.97 % of TNP	153	O=[N+]([O-])c1ccc(CNc2nc(NCc3nc4ccccc4[nH]3)c3nc[nH]c3n2)cc1 [Compound 20, N^6-((1H-benzo[d]imidazol-2-yl)methyl)-N^2-(4-nitrobenzyl)-9H-purine-2,6-diamine]	without notable changes	reduced cellular IP7 synthesis	–	more than 1.5 fold	did not show any spectral dissociation constant value; also recorded: without binding to CYP3A4; also recorded: No binding^d
–	1.8 ± 0.6	–	–	Clc1ccc(CNc2nc(NCc3cccnc3)c3nc[nH]c3n2)cc1 [Compound 12, N^2-(4-chlorobenzyl)-N^6-(pyridin-3-ylmethyl)-9H-purine-2,6-diamine]	–	–	–	–	–
5.9 ± 0.2 µM	3 ± 0.6	–	–	Fc1ccc(CNc2nc(NCc3cccnc3)c3nc[nH]c3n2)cc1 [Compound 11, N^2-(4-fluorobenzyl)-N^6-(pyridin-3-ylmethyl)-9H-purine-2,6-diamine]	–	–	–	–	–
34.7 ± 0.7 µM	22.2 ± 4.5	–	–	FC(F)(F)c1cccc(CNc2nc(NCc3ncc[nH]3)c3nc[nH]c3n2)c1 [Compound 14, N^6-((1H-imidazol-2-yl)methyl)-N^2-(3-(trifluoromethyl)benzyl)-9H-purine-2,6-diamine]	–	–	–	–	–
